In brackets after ≈: the same amount, converted by molar mass.
Columns and labels:
S. aureus Smith strain = assay: Inhibition of bacterial growth (MIC), Sm; type: cell-based, Staphylococcus aureus; conditions: Staphylococcus aureus, 16 to 18 hours, 37° C., read-out: Minimum Inhibitory Concentration for Bacterial Growth, Sm
Outline: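 Broth microdilution; inoculum 1×10^5 CFU/mL, LB or BHI; 11 two-fold dilutions, typically 80-0.078 μg/mL; 1% DMSO final; 37° C., shaken, 16-18 h; OD570 read-out. MIC = lowest concentration without growth.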

B. subtilis pol IIIC = biological target: T1, B. subtilis pol IIIC (Bacillus subtilis, UniProt P13267); assay: DNA polymerase assay, B. subtilis pol IIIC; type: biochemical
T1 construct: made in house

E. coli pol IIIE = biological target: T2, E. coli pol IIIE (Escherichia coli, UniProt P10443); assay: DNA polymerase assay, E. coli pol IIIE; type: biochemical; conditions: 80 μg/mL (190-260 μM) final concentration; all four dNTPs
T2 construct: purchased Enzyco, Denver, Colo
Outline: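 Incorporation of 3H label into activated calf thymus DNA (0.4 mg/mL) from 10 μM of all four dNTPs, 10 min at 30 °C in pH 7.5 Tris/magnesium acetate, compounds in 1% DMSO. Reactions started with 0.025–0.06 units recombinant polymerase, stopped with cold TCA; IC50 and percent inhibition relative to DMSO control.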

B. subtilis pol IIIE = biological target: T3, B. subtilis pol IIIE (Bacillus subtilis, UniProt O34623); assay: DNA polymerase assay, B. subtilis pol IIIE; type: biochemical
T3 construct: made in house
T3 sequence (O34623 whole entry): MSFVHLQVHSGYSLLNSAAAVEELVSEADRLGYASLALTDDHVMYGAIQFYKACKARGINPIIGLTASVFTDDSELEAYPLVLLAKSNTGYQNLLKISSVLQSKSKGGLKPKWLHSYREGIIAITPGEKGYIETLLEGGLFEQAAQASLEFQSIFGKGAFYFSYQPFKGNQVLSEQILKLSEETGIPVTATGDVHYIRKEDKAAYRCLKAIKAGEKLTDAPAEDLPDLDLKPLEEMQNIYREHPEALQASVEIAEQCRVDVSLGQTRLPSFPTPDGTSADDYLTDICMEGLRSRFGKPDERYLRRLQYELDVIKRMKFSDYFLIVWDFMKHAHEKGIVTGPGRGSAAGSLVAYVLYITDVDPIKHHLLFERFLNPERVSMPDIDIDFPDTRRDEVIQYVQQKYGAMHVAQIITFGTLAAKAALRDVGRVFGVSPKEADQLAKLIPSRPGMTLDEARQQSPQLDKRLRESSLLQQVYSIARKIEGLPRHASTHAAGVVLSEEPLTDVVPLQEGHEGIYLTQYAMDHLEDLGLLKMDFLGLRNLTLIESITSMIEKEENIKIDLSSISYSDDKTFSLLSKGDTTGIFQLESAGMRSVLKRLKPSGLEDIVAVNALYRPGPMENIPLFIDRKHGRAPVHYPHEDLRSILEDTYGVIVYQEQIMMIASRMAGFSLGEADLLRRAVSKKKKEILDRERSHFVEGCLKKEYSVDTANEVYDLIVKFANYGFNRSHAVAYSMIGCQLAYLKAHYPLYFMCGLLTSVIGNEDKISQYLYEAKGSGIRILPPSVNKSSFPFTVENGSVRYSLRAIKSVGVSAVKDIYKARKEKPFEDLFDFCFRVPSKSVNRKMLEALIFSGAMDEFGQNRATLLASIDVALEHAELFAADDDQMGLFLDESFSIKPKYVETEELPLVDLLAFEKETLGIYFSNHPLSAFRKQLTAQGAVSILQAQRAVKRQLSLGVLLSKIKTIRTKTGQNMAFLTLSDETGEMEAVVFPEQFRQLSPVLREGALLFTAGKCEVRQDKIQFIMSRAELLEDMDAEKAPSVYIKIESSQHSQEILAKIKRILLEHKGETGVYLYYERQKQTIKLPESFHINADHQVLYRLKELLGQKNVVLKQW

T1 sequence (P13267 whole entry): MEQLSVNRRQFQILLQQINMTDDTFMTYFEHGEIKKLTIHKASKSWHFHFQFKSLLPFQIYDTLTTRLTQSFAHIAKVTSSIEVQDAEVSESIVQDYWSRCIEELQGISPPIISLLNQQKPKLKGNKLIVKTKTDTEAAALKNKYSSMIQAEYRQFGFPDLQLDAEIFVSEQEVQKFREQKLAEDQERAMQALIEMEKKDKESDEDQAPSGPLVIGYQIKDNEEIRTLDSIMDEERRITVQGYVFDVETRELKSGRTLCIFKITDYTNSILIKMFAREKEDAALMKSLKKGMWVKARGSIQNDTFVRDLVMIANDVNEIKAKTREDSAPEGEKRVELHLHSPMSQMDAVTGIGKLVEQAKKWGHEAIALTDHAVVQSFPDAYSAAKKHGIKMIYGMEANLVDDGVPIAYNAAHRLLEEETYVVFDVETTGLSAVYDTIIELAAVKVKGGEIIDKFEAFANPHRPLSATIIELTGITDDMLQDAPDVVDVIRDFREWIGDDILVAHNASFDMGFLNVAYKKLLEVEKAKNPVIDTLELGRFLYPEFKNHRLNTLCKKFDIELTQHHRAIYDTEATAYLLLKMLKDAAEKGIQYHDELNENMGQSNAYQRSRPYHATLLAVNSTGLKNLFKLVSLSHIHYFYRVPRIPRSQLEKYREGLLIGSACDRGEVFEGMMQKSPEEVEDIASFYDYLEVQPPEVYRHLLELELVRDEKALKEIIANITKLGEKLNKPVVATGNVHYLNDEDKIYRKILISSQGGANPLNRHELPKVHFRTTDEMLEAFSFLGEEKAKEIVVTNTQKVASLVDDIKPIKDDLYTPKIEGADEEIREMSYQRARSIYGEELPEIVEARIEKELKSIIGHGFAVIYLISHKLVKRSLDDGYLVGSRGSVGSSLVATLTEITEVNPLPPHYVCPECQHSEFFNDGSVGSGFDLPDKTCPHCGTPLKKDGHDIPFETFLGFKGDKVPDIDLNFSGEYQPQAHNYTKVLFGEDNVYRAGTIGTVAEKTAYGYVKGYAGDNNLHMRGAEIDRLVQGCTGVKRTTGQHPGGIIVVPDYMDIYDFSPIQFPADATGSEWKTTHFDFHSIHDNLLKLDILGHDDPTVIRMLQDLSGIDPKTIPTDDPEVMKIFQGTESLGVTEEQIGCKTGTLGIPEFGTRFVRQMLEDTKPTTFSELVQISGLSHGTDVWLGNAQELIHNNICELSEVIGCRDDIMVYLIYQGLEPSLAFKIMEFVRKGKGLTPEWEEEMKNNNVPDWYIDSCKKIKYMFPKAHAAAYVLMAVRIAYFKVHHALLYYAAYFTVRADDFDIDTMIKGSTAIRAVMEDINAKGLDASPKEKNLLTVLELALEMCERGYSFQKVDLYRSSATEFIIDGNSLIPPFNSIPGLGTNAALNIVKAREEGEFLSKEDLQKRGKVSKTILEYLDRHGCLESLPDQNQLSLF
T2 sequence (P10443 whole entry): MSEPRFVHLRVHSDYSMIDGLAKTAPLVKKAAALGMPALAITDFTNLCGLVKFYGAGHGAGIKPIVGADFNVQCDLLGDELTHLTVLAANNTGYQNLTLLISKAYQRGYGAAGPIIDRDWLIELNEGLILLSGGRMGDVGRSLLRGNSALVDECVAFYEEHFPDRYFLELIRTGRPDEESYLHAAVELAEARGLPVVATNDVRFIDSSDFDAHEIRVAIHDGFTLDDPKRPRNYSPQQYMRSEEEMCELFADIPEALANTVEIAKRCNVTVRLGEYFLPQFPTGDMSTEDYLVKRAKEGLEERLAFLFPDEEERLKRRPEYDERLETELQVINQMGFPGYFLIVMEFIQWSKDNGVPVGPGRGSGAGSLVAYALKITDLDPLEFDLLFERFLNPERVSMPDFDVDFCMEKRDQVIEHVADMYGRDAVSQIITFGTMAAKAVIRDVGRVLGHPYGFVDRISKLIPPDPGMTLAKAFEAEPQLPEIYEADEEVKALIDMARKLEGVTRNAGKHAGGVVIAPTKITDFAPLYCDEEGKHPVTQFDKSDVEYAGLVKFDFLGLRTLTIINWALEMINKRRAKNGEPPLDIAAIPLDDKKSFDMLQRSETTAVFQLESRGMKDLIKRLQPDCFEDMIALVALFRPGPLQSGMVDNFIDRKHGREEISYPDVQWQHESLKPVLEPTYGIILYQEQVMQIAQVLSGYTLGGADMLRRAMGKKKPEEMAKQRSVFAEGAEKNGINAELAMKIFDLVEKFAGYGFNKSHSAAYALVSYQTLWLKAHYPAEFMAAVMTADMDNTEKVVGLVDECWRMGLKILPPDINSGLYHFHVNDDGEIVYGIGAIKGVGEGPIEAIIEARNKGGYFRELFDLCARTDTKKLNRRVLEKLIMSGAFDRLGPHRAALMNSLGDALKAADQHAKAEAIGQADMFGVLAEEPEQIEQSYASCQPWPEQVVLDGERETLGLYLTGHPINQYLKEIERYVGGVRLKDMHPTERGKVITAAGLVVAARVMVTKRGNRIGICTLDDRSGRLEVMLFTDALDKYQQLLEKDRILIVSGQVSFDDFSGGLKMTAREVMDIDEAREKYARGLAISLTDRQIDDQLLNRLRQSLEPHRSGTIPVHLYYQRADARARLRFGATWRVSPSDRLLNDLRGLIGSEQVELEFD

COc1ccc(-c2cc(C(=O)NN=Cc3cc(OC)c(OC)c(OC)c3)[nH]n2)cc1 [Compound 17]
MIC (S. aureus Smith strain): 2.5 µg/mL (≈ 6.09 µM) | IC50 (B. subtilis pol IIIC; B. subtilis Pol IIIC IC50, 4 dNTPs, in the presence of all four dNTP substrates): 36000 nM | IC50 (B. subtilis pol IIIC; B. subtilis Pol IIIC IC50, −dATP, in the absence of dATP): 3100 nM | IC50 (B. subtilis pol IIIC; B. subtilis Pol IIIC IC50, −dCTP, in the absence of dCTP): 2600 nM | IC50 (B. subtilis pol IIIC; B. subtilis Pol IIIC IC50, −dGTP, in the absence of dGTP): 1800 nM | Percent Enzymatic Inhibition E. coli pol IIIE (E. coli pol IIIE): Inactive | IC50 (B. subtilis pol IIIE; B. subtilis Pol IIIE IC50, −dATP, in the absence of dATP): > 780 µM | IC50 (B. subtilis pol IIIE; B. subtilis Pol IIIE IC50, −dCTP, in the absence of dCTP): > 780 µM | IC50 (B. subtilis pol IIIE; B. subtilis Pol IIIE IC50, −dGTP, in the absence of dGTP): > 780 µM

From patent publication US20060258729A1, “Antibacterial pyrazole carboxylic acid hydrazides” (priority 2002, published 2006)
